Five compounds from US12059425B2, “Heterocyclic compounds and uses thereof” (Kumquat Biosciences Inc., priority 2022, dated 2024) can be followed below.

Structures are written as SMILES. pIC50: −log10 of the molar value.

By pIC50 is commonly meant the negative decadic logarithm of the IC50, by convention in mol/L.

The target in assay [1] is T1, K-Ras G12D (Homo sapiens, UniProt P01116, G12D).
T1 construct: made in house; host or cells: E. coli, e.g. BL21 (DE3)
Kind of assay: PPI-HTRF assay, K-Ras G12D / SOS1 interaction. The following applies: HTRF, K-Ras G12D; read-out: PPI-HTRF-5 nM (K-Ras G12D IC50). The format is biochemical. In short, it runs like this:
(§1)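 GST-tagged K-Ras (WT or mutant) bound to anti-GST-Eu was mixed with His-hSOS1 bound to anti-6His-XL665 in pH 7.4 HEPES/NaCl/DTT/BSA/Igepal buffer. After ~10 min or longer, HTRF was read (ex 337 nm, em 620/665 nm). IC50 was derived from the 665/620 ratio, with duplicates tested from 10 μM down to 0.01 μM.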
In general terms: TR-FRET usually uses a lanthanide donor and a delayed reading to cut background.

For assay [2], the target named is T2, K-Ras G12S (Homo sapiens, UniProt P01116, G12S).
T2 construct: made in house; host or cells: E. coli, e.g. BL21 (DE3)
Kind of assay: PPI-HTRF assay, K-Ras G12S / SOS1 interaction. The following applies: read-out: PPI-HTRF-5 nM (K-Ras G12S IC50). The format is biochemical. In short, it runs like this:
as §1

The target of assay [3] is T3, K-Ras G12V (Homo sapiens, UniProt P01116, G12V).
T3 construct: made in house; host or cells: E. coli, e.g. BL21 (DE3)
Description: PPI-HTRF assay, K-Ras G12V / SOS1 interaction. The format is biochemical. The following applies: HTRF, K-Ras G12V; read-out: PPI-HTRF-5 nM (K-Ras G12V IC50). An outline of the steps:
as §1

Assay [4] addresses T4, wildtype K-Ras (Homo sapiens, UniProt P01116).
T4 construct: made in house; host or cells: E. coli, e.g. BL21 (DE3)
Kind of assay: PPI-HTRF assay, wildtype K-Ras / SOS1 interaction. The format is biochemical. The following applies: HTRF, K-Ras wt; read-out: PPI-HTRF-5 nM (K-Ras wt IC50). In short, it runs like this:
as §1

The test system of assay [5] is GP2D cells. Description: Ras cellular assay, cell proliferation GP2D. The format is cell-based. In short, it runs like this: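 Growth inhibition read by CellTiter-Glo luminescence roughly 5 days after compound addition, which followed overnight plating of G12D-mutant GP2D cells (e.g., 800 per well). Compounds were tested as a serial dilution (e.g., 9 points, 3-fold), with IC50 fitted by four-parameter model.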

Assay [6] deals with A549 cells. Kind of assay: Ras cellular assay, cell proliferation A549. The format is cell-based. The following applies: Homo sapiens. An outline of the steps: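 G12S-mutant A549 cells (800/well) in RPMI-1640 plus 10% heat-inactivated FBS, standard or ultra-low attachment 384-well plates, dosed the day after plating with a 10-point 3-fold series. Viability by CellTiter-Glo luminescence about 6 days later; IC50 from four-parameter fit.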

Assay [7] relates to SW620 cells. Kind of assay: Ras cellular assay, cell proliferation SW620. The format is cell-based. The following applies: Homo sapiens, SW-620. The text has this:
For example, this assay can be also used to assess selective growth inhibition of a mutant Ras protein relative to a wildtype, or relative to a different mutant Ras protein.

T3 sequence (P01116 1-188 isoform P01116-2 G12V): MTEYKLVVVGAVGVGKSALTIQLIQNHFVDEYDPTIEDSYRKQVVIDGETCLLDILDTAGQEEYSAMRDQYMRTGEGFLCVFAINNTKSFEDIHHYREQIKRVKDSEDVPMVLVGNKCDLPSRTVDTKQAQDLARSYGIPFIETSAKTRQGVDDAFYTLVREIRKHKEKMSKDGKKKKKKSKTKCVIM
T2 sequence (P01116 1-188 isoform P01116-2 G12S): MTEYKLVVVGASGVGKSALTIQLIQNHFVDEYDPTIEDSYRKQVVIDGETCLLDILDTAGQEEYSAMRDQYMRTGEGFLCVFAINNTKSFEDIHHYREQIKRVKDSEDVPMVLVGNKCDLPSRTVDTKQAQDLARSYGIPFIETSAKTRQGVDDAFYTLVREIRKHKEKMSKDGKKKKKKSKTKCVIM
T1 sequence (P01116 1-188 isoform P01116-2 G12D): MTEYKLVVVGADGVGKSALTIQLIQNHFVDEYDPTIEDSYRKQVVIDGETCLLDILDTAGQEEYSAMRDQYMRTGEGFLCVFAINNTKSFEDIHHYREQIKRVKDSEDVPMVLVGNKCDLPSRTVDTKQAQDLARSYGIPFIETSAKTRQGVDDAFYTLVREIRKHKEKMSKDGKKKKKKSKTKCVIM
T4 sequence (P01116 1-188 isoform P01116-2): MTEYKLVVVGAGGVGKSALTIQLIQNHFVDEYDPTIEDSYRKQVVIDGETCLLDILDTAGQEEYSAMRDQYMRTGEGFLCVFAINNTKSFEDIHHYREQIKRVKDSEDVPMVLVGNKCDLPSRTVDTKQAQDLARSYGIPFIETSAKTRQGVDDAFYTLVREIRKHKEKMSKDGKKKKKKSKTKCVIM

As for `COC1CCC2COc3c(Cl)c(-c4ccc(F)c5sc(N)c(C#N)c45)c(F)c4nc(OC[C@@]56CCCN5C[C@H](F)C6)nc(c34)N2C1` (stereo partly drawn) [compound 182, 2-amino-4-(6-chloro-4-fluoro-2-(((2R,7aS)-2-fluorotetrahydro-1H-pyrrolizin-7a(5H)-yl)methoxy)-11-methoxy-8,8a,9,10,11,12-hexahydropyrido[2′,1′:3,4][1,4]oxazepino [5,6,7-de]quinazolin-5-yl)-7-fluorobenzo[b]thiophene-3-carbonitrile], the pIC50 in assay [1], in assay [2], in assay [3], in assay [4], in assay [5] and in assay [6] was above 5.30 each time. Besides, the pIC50 in assay [7] was above 5.30.

`N#CCC1CCC2COc3c(Cl)c(-c4ccc(F)c5sc(N)c(C#N)c45)c(F)c4nc(OCC56CCCN5C[C@H](F)C6)nc(c34)N2C1` (stereo partly drawn) [compound 204, 2-amino-4-(6-chloro-11-(cyanomethyl)-4-fluoro-2-(((2R)-2-fluorotetrahydro-1H-pyrrolizin-7a(5H)-yl)methoxy)-8,8a,9,10,11,12-hexahydropyrido[2′,1′:3,4][1,4]oxazepino [5,6,7-de]quinazolin-5-yl)-7-fluorobenzo[b]thiophene-3-carbonitrile]: the negative-log IC50 (pIC50) in assay [1], in assay [2], in assay [3], in assay [4], in assay [5] and in assay [6] was above 5.30 in each case. The pIC50 in assay [7] was above 5.30.

For `N#Cc1c(N)sc2c(F)ccc(-c3c(Cl)c4c5c(nc(OC[C@@]67CCCN6C[C@H](F)C7)nc5c3F)N3Cc5ccnn5CCC3CCO4)c12` (single isomer, unassigned) [compound 153], the pIC50 in assay [1], in assay [2], in assay [3], in assay [4], in assay [5] and in assay [6] was above 5.30 throughout. This compound showed a pIC50 in assay [7] above 5.30.

In the case of `N#Cc1c(N)sc2c(F)ccc(-c3c(Cl)c4c5c(nc(OC[C@@]67CCCN6C[C@H](F)C7)nc5c3F)N3CC[C@@H]3CCO4)c12` [compound 167, 2-amino-4-((12aR)-9-chloro-7-fluoro-5-(((2R,7aS)-2-fluorotetrahydro-1H-pyrrolizin-7a(5H)-yl)methoxy)-1,11,12,12a-tetrahydro-2H-azeto[11,2′:5,6][1,5]oxazocino[4,3,2-de]quinazolin-8-yl)-7-fluorobenzo[b]thiophene-3-carbonitrile], the pIC50 in assay [1], in assay [2], in assay [3], in assay [4], in assay [5] and in assay [6] was above 5.30 throughout. In addition, the negative-log IC50 (pIC50) in assay [7] was above 5.30.

Regarding `CN1c2nc(OC[C@@]34CCCN3C[C@H](F)C4)nc3c(F)c(-c4ccc(F)c5sc(N)c(C#N)c45)c(Cl)c(c23)OCC2CN(C(=O)[C@H]3CN3)CC21` (stereo partly drawn) [compound 124, 2-amino-4-(10-((R)-aziridine-2-carbonyl)-6-chloro-4-fluoro-2-(((2R,7aS)-2-fluorotetrahydro-1H-pyrrolizin-7a(5H)-yl)methoxy)-12-methyl-8a,9,10,11,11a,12-hexahydro-8H-pyrrolo[3′,4′:6,7][1,5]oxazocino[4,3,2-de]quinazolin-5-yl)-7-fluorobenzo[b]thiophene-3-carbonitrile], the pIC50 is above 5.30 in assay [1]; above 5.30 in assay [2]; above 5.30 in assay [3]; above 5.30 in assay [4]; above 5.30 in assay [5]; below 5.30 in assay [6]. The compound further had a pIC50 in assay [7] above 5.30.
